Where a name gives a salt, the structure may show the parent alone. Read-outs that look alike come from different tables or passages of the source.
What was measured:
[1] = Determination of SQR solubility in oils, surfactants and co-surfactants; type: physicochemical; details: ethanol
[2] = cited from earlier work
[3] = depending on the dosage form; reported, ref not given; cited from earlier work

solubility at 72 h [1]: 126 mg/mL
SMILES: CC(C)(C)NC(=O)[C@@H]1C[C@@H]2CCCC[C@@H]2CN1C[C@@H](O)[C@H](Cc1ccccc1)NC(=O)[C@H](CC(N)=O)NC(=O)c1ccc2ccccc2n1 [SQR, Saquinavir mesylate]
aqueous solubility ([2]; pH of 6.5): 0.073 mg/mL | aqueous solubility ([2]; pH of 7.4): 0.036 mg/mL | oral bioavailability [3]: 0.7–4.0%
